Assay results taken from patent publication US6254889A, “Solid dispersion dosage form of amorphous xanthine derivative and enteric-coating polymer” (Kyowa Hakko Kogyo Co., Ltd., priority 1995, dated 2001).

Assay: Comparative absorbability test, oral administration to beagles (pharmacokinetics)
Format: in vivo
Conditions: male beagle, oral with 20 ml water, 0-24 h, in terms of 3 mg/kg (doses given: Examples 6-8 3 mg/kg, crystal 6 mg/kg, Comparative Example 1 4 mg/kg)

## CCCn1c(=O)c2[nH]c(C34CC5CC(CC3C5)C4)nc2n(CCC)c1=O [Compound No. 1]
  The Area under the Plasma Concentration Curve, Intact Drug (in terms of 3 mg/kg): 69.9 ± 2.6 ng·h/mL
